Laboratory results: ChEMBL document CHEMBL1122324, “New antihypertensive cannabinoids” (1983)

Columns and labels:
Conditions in all cases: route oral
Rattus norvegicus [1] = assay: Percentage decrease in systolic blood pressure after 4 hr at 30 mg/kg administered perorally in rats; type: functional, Artery
Rattus norvegicus [2] = assay: percentage decrease in heart rate after 4 hr at a dose of 300 mg/kg administered perorally in rats; type: functional
Rattus norvegicus [3] = assay: percentage decrease in heart rate after 4 hr at a dose of 30 mg/kg administered perorally in rats; type: functional
Rattus norvegicus [4] = assay: Percentage decrease in systolic blood pressure after 4 hr at 300 mg/kg administered perorally in rats; type: functional, Artery
Rattus norvegicus [5] = assay: Percentage decrease in systolic blood pressure after 4 hr at 100 mg/kg administered perorally in rats; type: functional, Artery
Rattus norvegicus [6] = assay: Percentage decrease in systolic blood pressure after 6 hr at 30 mg/kg administered perorally in rats; type: functional, Artery
Rattus norvegicus [7] = assay: percentage decrease in heart rate after 24 hr at a dose of 30 mg/kg administered perorally in rats; type: functional
Rattus norvegicus [8] = assay: Percentage decrease in systolic blood pressure after 24 hr at 30 mg/kg administered perorally in rats; type: functional, Artery
Rattus norvegicus [9] = assay: Percentage decrease in systolic blood pressure after 1 hr at 30 mg/kg administered perorally in rats; type: functional, Artery
Rattus norvegicus [10] = assay: percentage decrease in heart rate after 4 hr at a dose of 100 mg/kg administered perorally in rats; type: functional
Rattus norvegicus [11] = assay: percentage decrease in heart rate after 6 hr at a dose of 30 mg/kg administered perorally in rats; type: functional
Rattus norvegicus [12] = assay: percentage decrease in heart rate after 1 hr at a dose of 30 mg/kg administered perorally in rats; type: functional
Rattus norvegicus [13] = assay: Percentage decrease in systolic blood pressure after 6 hr at 3 mg/kg administered perorally in rats; type: functional, Artery
Rattus norvegicus [14] = assay: Percentage decrease in systolic blood pressure after 6 hr at 1 mg/kg administered perorally in rats; type: functional, Artery
Rattus norvegicus [15] = assay: Percentage decrease in systolic blood pressure after 6 hr at 0.3 mg/kg administered perorally in rats; type: functional, Artery
Rattus norvegicus [16] = assay: percentage decrease in heart rate after 4 hr at a dose of 0.3 mg/kg administered perorally in rats; type: functional
Rattus norvegicus [17] = assay: percentage decrease in heart rate after 6 hr at a dose of 3 mg/kg administered perorally in rats; type: functional
Rattus norvegicus [18] = assay: percentage decrease in heart rate after 24 hr at a dose of 10 mg/kg administered perorally in rats; type: functional
Rattus norvegicus [19] = assay: percentage decrease in heart rate after 6 hr at a dose of 0.3 mg/kg administered perorally in rats; type: functional
Rattus norvegicus [20] = assay: Percentage decrease in systolic blood pressure after 1 hr at 10 mg/kg administered perorally in rats; type: functional, Artery
Rattus norvegicus [21] = assay: percentage decrease in heart rate after 1 hr at a dose of 0.3 mg/kg administered perorally in rats; type: functional
Rattus norvegicus [22] = assay: Percentage decrease in systolic blood pressure after 24 hr at 10 mg/kg administered perorally in rats; type: functional, Artery
Rattus norvegicus [23] = assay: percentage decrease in heart rate after 1 hr at a dose of 10 mg/kg administered perorally in rats; type: functional
Rattus norvegicus [24] = assay: Percentage decrease in systolic blood pressure after 4 hr at 3 mg/kg administered perorally in rats; type: functional, Artery
Rattus norvegicus [25] = assay: Percentage decrease in systolic blood pressure after 24 hr at 1 mg/kg administered perorally in rats; type: functional, Artery
Rattus norvegicus [26] = assay: percentage decrease in heart rate after 1 hr at a dose of 3 mg/kg administered perorally in rats; type: functional
Rattus norvegicus [27] = assay: Percentage decrease in systolic blood pressure after 24 hr at 3 mg/kg administered perorally in rats; type: functional, Artery
Rattus norvegicus [28] = assay: percentage decrease in heart rate after 6 hr at a dose of 1 mg/kg administered perorally in rats; type: functional
Rattus norvegicus [29] = assay: Percentage decrease in systolic blood pressure after 4 hr at 10 mg/kg administered perorally in rats; type: functional, Artery
Rattus norvegicus [30] = assay: percentage decrease in heart rate after 4 hr at a dose of 1 mg/kg administered perorally in rats; type: functional
Rattus norvegicus [31] = assay: percentage decrease in heart rate after 24 hr at a dose of 3 mg/kg administered perorally in rats; type: functional
Rattus norvegicus [32] = assay: Percentage decrease in systolic blood pressure after 1 hr at 3 mg/kg administered perorally in rats; type: functional, Artery
Rattus norvegicus [33] = assay: Percentage decrease in systolic blood pressure after 4 hr at 1 mg/kg administered perorally in rats; type: functional, Artery
Rattus norvegicus [34] = assay: Percentage decrease in systolic blood pressure after 1 hr at 0.3 mg/kg administered perorally in rats; type: functional, Artery
Rattus norvegicus [35] = assay: Percentage decrease in systolic blood pressure after 1 hr at 1 mg/kg administered perorally in rats; type: functional, Artery
Rattus norvegicus [36] = assay: percentage decrease in heart rate after 24 hr at a dose of 1 mg/kg administered perorally in rats; type: functional
Rattus norvegicus [37] = assay: percentage decrease in heart rate after 4 hr at a dose of 10 mg/kg administered perorally in rats; type: functional
Rattus norvegicus [38] = assay: Percentage decrease in systolic blood pressure after 4 hr at 0.3 mg/kg administered perorally in rats; type: functional, Artery
Rattus norvegicus [39] = assay: percentage decrease in heart rate after 1 hr at a dose of 1 mg/kg administered perorally in rats; type: functional
Rattus norvegicus [40] = assay: percentage decrease in heart rate after 6 hr at a dose of 10 mg/kg administered perorally in rats; type: functional
Rattus norvegicus [41] = assay: Percentage decrease in systolic blood pressure after 24 hr at 0.3 mg/kg administered perorally in rats; type: functional, Artery
Rattus norvegicus [42] = assay: Percentage decrease in systolic blood pressure after 6 hr at 10 mg/kg administered perorally in rats; type: functional, Artery
Rattus norvegicus [43] = assay: percentage decrease in heart rate after 24 hr at a dose of 0.3 mg/kg administered perorally in rats; type: functional
Rattus norvegicus [44] = assay: percentage decrease in heart rate after 4 hr at a dose of 3 mg/kg administered perorally in rats; type: functional

Structure (SMILES): CCCCCC(C)C(C)c1cc(O)c2c(c1)OC(C)(C)C1CCN(C(=O)CN3CCOCC3)C=C21 (stereo unspecified)
- Decrease in Systolic blood pressure (Rattus norvegicus [1]): -5%
- Heart rate (Rattus norvegicus [2]): 9%
- Heart rate (Rattus norvegicus [3]): 6%
- Decrease in Systolic blood pressure (Rattus norvegicus [4]): 26%
- Decrease in Systolic blood pressure (Rattus norvegicus [5]): 23%
- Decrease in Systolic blood pressure (Rattus norvegicus [6]): -1%
- Heart rate (Rattus norvegicus [7]): 14%
- Decrease in Systolic blood pressure (Rattus norvegicus [8]): -6%
- Decrease in Systolic blood pressure (Rattus norvegicus [9]): -8%
- Heart rate (Rattus norvegicus [10]): 5%
- Heart rate (Rattus norvegicus [11]): 0%
- Heart rate (Rattus norvegicus [12]): -16%

Structure (SMILES): C#CCN1CCC2=C(C1)c1c(O)cc(C(C)CCCc3ccc(F)cc3)cc1OC2(C)C (stereo unspecified)
- Decrease in Systolic blood pressure (Rattus norvegicus [13]): 9%
- Decrease in Systolic blood pressure (Rattus norvegicus [14]): 5%
- Decrease in Systolic blood pressure (Rattus norvegicus [15]): -5%
- Decrease in Systolic blood pressure (Rattus norvegicus [1]): 23%
- Heart rate (Rattus norvegicus [16]): -10%
- Heart rate (Rattus norvegicus [3]): 16%
- Heart rate (Rattus norvegicus [17]): -7%
- Heart rate (Rattus norvegicus [18]): -6%
- Heart rate (Rattus norvegicus [19]): -12%
- Decrease in Systolic blood pressure (Rattus norvegicus [20]): 34%
- Heart rate (Rattus norvegicus [21]): -29%
- Decrease in Systolic blood pressure (Rattus norvegicus [22]): 20%
- Heart rate (Rattus norvegicus [23]): -3%
- Decrease in Systolic blood pressure (Rattus norvegicus [24]): 27%
- Decrease in Systolic blood pressure (Rattus norvegicus [25]): 9%
- Heart rate (Rattus norvegicus [26]): -7%
- Decrease in Systolic blood pressure (Rattus norvegicus [6]): 26%
- Decrease in Systolic blood pressure (Rattus norvegicus [27]): 11%
- Decrease in Systolic blood pressure (Rattus norvegicus [8]): 43%
- Heart rate (Rattus norvegicus [28]): 5%
- Decrease in Systolic blood pressure (Rattus norvegicus [29]): 30%
- Heart rate (Rattus norvegicus [30]): 3%
- Heart rate (Rattus norvegicus [31]): -14%
- Decrease in Systolic blood pressure (Rattus norvegicus [9]): 33%
- Decrease in Systolic blood pressure (Rattus norvegicus [32]): 8%
- Decrease in Systolic blood pressure (Rattus norvegicus [33]): 17%
- Decrease in Systolic blood pressure (Rattus norvegicus [34]): -5%
- Decrease in Systolic blood pressure (Rattus norvegicus [35]): 1%
- Heart rate (Rattus norvegicus [36]): -18%
- Heart rate (Rattus norvegicus [37]): -2%
- Heart rate (Rattus norvegicus [11]): 36%
- Decrease in Systolic blood pressure (Rattus norvegicus [38]): -7%
- Heart rate (Rattus norvegicus [39]): -9%
- Heart rate (Rattus norvegicus [12]): 5%
- Heart rate (Rattus norvegicus [40]): 1%
- Decrease in Systolic blood pressure (Rattus norvegicus [41]): -3%
- Decrease in Systolic blood pressure (Rattus norvegicus [42]): 20%
- Heart rate (Rattus norvegicus [43]): -5%
- Heart rate (Rattus norvegicus [44]): 10%
